The subject of test [1] is UCP2 and UCP3 expression in 3T3-L1 adipocytes. Nature of the test: Western blot of thermogenic proteins. Type of test: cell-based. Here is the method: (§1) It was examined whether the expression of proteins involved in lipid production was reduced by 5,7-dimethoxyflavone treatments in 3T3-L1 adipocytes. 3T3-L1 adipocytes were induced to differentiate in the same manner as described in Example 1-1, and were lysed with a RIPA buffered solution containing a proteinase inhibitor cocktail. Protein samples were boiled for 5 minutes, loaded ([…]) on 10% SDS-PAGE gels and separated by electrophoresis. Separated proteins were transferred to the nitrocellulose membranes and subjected to western blot experiments. Protein-transferred membranes were reacted with primary antibodies, rinsed with TBST three times, 10 minutes each. The dilution ratio of primary antibodies was 1:1000. Membranes reacted with primary antibodies were followed with secondary antibody incubation (anti-rabbit horseradish) for 2 hours at room temperature. The dilution ratio of secondary antibodies was 1:5000. Protein bands were visualized with ECL western blotting detection reagents (Amersham, Tokyo, Japan). Proteins were harvested after eight days and subjected to western blot experiments.
Proteins were harvested from the 3T3-L1 adipocytes differentiated as described in Example 1-1, and subjected to western blot experiments in the same manner as in Example 1-2.
A general note: Immunoblotting shows a protein as a band on a membrane.

Test [2] relates to C57BL/6 mice with high-fat diet-induced obesity. Nature of the test: Weight-reducing effect in the mouse model of high fat diet-induced obesity. To be noted: 20 mg/kg oral once a day; for food intake versus control groups: eight weeks; for rate of weight gain at the end of eight weeks compared to the control group: p<0.05. Type of test: in vivo. Here is the method: Three week-old C57BL/6 mice were acclimated for one week and fed with high-fat diet (product #D12492, Research Diet Inc., New Brunswick, N.J., USA) for six weeks to induce obesity. Mice were randomly divided into experimental and control groups, in total of four groups, ten per each group. The experimental groups were orally administered with either 5,7-dimethoxyflavone or 5,7,4′-trimethoxyflavone suspended in 0.25% carboxymethyl cellulose at a dose of 20 mg/kg body weight, once a day at regular hours for eight weeks. For comparison, the control groups were orally administered with 0.25% carboxymethyl cellulose only in the same manner as the experimental groups. Food intake and body weight of each sample mouse were measured every week.

For test [3], the system named is SREBP1c, C/EBP, FAS and ACC expression in 3T3-L1 adipocytes. The test can be described thus: Western blot of lipogenic transcription factors and enzymes. Type of test: cell-based. To be noted: proteins harvested after eight days. Here is the method:
as §1

The subject of a further test is 3T3-L1 preadipocytes. The test can be described thus: Inhibition of lipid production, Oil Red O staining of differentiated adipocytes. Type of test: cell-based. Here is the method: 3T3-L1 preadipocytes (American Type Culture Collection (ATCC), Manassas, Va., USA) were cultured in DMEM (Dulbecco's Modified Eagle's Medium) supplemented with 10% bovine calf serum, and seeded into 12-well microtiter plates with a density of 10^5 cells/well. Adipocyte differentiation was induced when the preadipocytes reached approximately 100% confluence after growing two more days at 90% confluence. For the experimental groups, induction of adipocyte differentiation was performed in the presence of 5,7-dimethoxyflavone at the concentration of 5, 10, or 20 μM dissolved in the culture medium containing dexamethasone, IBMX (3-isobutyl-1-methylxanthine), and insulin. Afterwards, cells of the experimental groups were maintained continuously in the presence of the same concentrations of 5,7-dimethoxyflavone dissolved in the culture medium containing 10% FBS and 0.1% insulin, replacing the medium every two days. For comparison, control cells were treated the same way as the cells of the experimental groups except for the 5,7-dimethoxyflavone treatment. On day 10 since induction of differentiation, fully differentiated adipocytes were stained with Oil Red O (Sigma, St. Louis, Mo., USA). Stained lipid droplets in the adipocytes were extracted with 100% isopropanol and subjected to the measurement of the absorbance at 500 nm using a spectrophotometer. […]

Experimental findings from US9511048B2, “Use of flavone compound for prevention or treatment of obesity” (INDUSTRY-ACADEMIC COOPERATION FOUNDATION, YONSEI UNIVERSITY, priority 2012, dated 2016) are described below.

For `COc1cc(OC)c2c(=O)cc(-c3ccccc3)oc2c1` [5,7-dimethoxyflavone], in test [1], the “expression of UCP2 and UCP3” value was “upregulated the expression of UCP2 and UCP3”. Further, in test [2], the “food intake versus control groups” value was “no significant difference” and the “rate of weight gain at the end of eight weeks compared to the control group” value is reported as “significantly lower”. Moreover, in test [3], the “expression of SREBP1c, C/EBP, FAS and ACC” value is given as “reduction in the expression”. Also, the “lipid production in 3T3-L1 adipocytes” value in the test with 3T3-L1 preadipocytes (5, 10 or 20 μM, day 10 after induction of differentiation, Oil Red O, absorbance 500 nm) is recorded as “suppresses lipid production in 3T3-L1 adipocytes effectively”.
For `COc1ccc(-c2cc(=O)c3c(OC)cc(OC)cc3o2)cc1` [5,7,4′-trimethoxyflavone], in test [2], the “food intake versus control groups” value is listed as “no significant difference” and the “rate of weight gain at the end of eight weeks compared to the control group” value is recorded as “significantly lower”. Further, the “reduction in lipid production compared to the control” value in the test with 3T3-L1 preadipocytes (20 μM, p<0.01) is on record as 28%.
